According to article PMC12064818, “A general assay platform to study protein pharmacology using ligand-dependent structural dynamics” (Nature Communications, 2025):

How the values were obtained:
[1] = molecular target: firefly luciferase (FLuc) (Photinus pyralis, UniProt P08659); experiment: Thermal shift profiles (Thermofluor assay), FLuc; type: binding; design: unit of the concentration uncertain; conditions: 52.782 °C; compound 100 (unit uncertain);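 also: normalized first derivative of fluorescence (dF/dT) at the stated temperature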
Chain of firefly luciferase (FLuc) (P08659 whole entry): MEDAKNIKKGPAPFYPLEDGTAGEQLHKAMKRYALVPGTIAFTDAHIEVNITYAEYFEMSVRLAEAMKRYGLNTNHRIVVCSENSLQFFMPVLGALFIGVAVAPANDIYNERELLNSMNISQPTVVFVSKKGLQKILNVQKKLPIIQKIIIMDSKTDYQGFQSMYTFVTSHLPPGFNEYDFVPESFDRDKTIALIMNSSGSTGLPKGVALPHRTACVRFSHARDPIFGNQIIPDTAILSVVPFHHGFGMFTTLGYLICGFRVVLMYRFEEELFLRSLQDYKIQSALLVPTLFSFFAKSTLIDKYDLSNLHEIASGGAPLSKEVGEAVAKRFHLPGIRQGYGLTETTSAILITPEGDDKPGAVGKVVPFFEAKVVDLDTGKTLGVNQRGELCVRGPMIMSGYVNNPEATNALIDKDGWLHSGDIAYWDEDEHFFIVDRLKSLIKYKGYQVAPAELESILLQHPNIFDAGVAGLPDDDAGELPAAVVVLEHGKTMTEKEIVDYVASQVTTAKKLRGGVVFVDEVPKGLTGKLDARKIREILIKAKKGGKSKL
Description: Thermal stabilization of proteins in the presence of the ligands were determined using Thermofluor technique. MicroAmp optical 384-well plates (Applied Biosystems by Life Technologies), ViiA 7 real-time PCR instrument (Applied Biosystems by Life Technologies) and SYPRO Orange (Life Technologies) were used to test the samples. The final concentration of the protein, compounds and dye were maintained at 5 µM, 100 µM and 10x respectively in a 20 µL reaction volume. […] Proteins were added to the 384-well plate first followed by the compounds. Samples were incubated for 10 mins at room temperature and protected from light. […] The plate was sealed with a MicroAmp optical adhesive film, centrifuged at 1500 RPM for 2 min, and then loaded onto the ViiA 7 real–time PCR instrument for fluorescence intensity measurements upon heating the sample from 25 to 95 °C at 1 °C/min increments. Data was exported to excel, fluorescence intensity data and its first derivative were normalized and plotted using GraphPad Prism to determine Tm. […]
6 Read ViiA7 Read the therm al unfolding of the protein with ViiA7 real-tim e PCR system
4 Prepare 50X dye in PBS: 1 μL Sypro Orange 5000X (Life Technologies), 99 μL ddH2O. Add 4 μL to each well Read the m elting tem perature from 25 to 95 °C using ViiA 7 real tim e PCR instrum ent by following the below instructions Perform therm al denaturation in 384-well assay plate […]

[2] = molecular target: FLuc-C-HiBiT (firefly luciferase) (Photinus pyralis, UniProt P08659, form not given/L550V); experiment: SDR assay, FLuc-C-HiBiT; conditions: for SDR assay statistics Ave RLU / SDR assay statistics S:B / SDR assay statistics S:N / SDR assay statistics Z’: 32.8 µM ligand; for 10 nM FLuc-C-HiBiT + 10 mM ATP, Mean / 10 nM FLuc-C-HiBiT No ATP, Mean: Log [PTC124]; for SDR + 10 mM ATP / SDR No ATP: 10 nM FLuc-C-HiBiT, normalized activity, Log [Compound]
Chain of FLuc-C-HiBiT (firefly luciferase) (P08659 2-550 L550V, form open): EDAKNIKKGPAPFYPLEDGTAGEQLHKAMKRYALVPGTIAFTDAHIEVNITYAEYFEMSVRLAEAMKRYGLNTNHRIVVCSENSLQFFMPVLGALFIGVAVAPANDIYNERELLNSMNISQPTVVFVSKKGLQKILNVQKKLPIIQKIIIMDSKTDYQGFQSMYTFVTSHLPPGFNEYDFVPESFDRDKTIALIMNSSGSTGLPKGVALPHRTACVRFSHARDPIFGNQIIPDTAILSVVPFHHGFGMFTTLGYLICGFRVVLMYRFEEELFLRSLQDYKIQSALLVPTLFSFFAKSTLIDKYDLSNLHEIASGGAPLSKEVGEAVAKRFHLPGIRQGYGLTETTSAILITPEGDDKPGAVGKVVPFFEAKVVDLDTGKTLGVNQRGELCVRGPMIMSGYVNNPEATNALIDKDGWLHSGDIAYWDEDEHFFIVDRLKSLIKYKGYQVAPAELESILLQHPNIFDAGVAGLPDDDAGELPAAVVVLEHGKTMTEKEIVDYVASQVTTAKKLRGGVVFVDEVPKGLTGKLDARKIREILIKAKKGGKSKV

[3] = FLuc-C-HiBiT (10 nM) + 10 mM ATP

CC(CNC(=O)C1CCN(C(=O)c2ncn3c2COC(c2ccccc2)C3)CC1)c1ccccc1 (stereo not drawn) [NCGC 00449795]
Thermofluor FLuc, No ATP [1]: 0.992

COc1ccc(NC(=O)C2CCN(C(=O)c3ncn4c3COC(c3ccccc3)C4)CC2)cc1Cl (stereo not drawn) [NCGC 00449919]
Thermofluor FLuc, No ATP [1]: 0.994

O=C(O)c1cccc(-c2noc(-c3ccccc3F)n2)c1 [PTC124, reference compound]
pSDR50, FLuc-C-HiBiT (10 nM) ([2]; 0 μM ATP): 5.73 ± 0.13 | pSDR50, FLuc-C-HiBiT (10 nM) ([2]; 10 μM ATP): 8.30 ± 0.07 | SDR assay statistics Ave RLU [2, 3]: 11178.8 RLU | SDR assay statistics S:B [2, 3]: 6.5 | SDR assay statistics S:N [2, 3]: 12.2 | SDR assay statistics Z’ [2, 3]: 0.693 | SDR assay statistics Ave RLU ([2]; FLuc-C-HiBiT (10 nM) No ATP): 6229.4 RLU | SDR assay statistics S:B ([2]; FLuc-C-HiBiT (10 nM) No ATP): 5.1 | SDR assay statistics S:N ([2]; FLuc-C-HiBiT (10 nM) No ATP): 7.5 | SDR assay statistics Z’ ([2]; FLuc-C-HiBiT (10 nM) No ATP): 0.503 | 10 nM FLuc-C-HiBiT + 10 mM ATP, Mean ([2]; M (SDR) -4.48): 21802.2 RLU | 10 nM FLuc-C-HiBiT No ATP, Mean ([2]; M (SDR) -4.48): 17458.7 RLU | 10 nM FLuc-C-HiBiT + 10 mM ATP, Mean ([2]; M (SDR) -4.96): 22284.7 RLU | 10 nM FLuc-C-HiBiT No ATP, Mean ([2]; M (SDR) -4.96): 16769.9 RLU | 10 nM FLuc-C-HiBiT + 10 mM ATP, Mean ([2]; M (SDR) -5.44): 22342.5 RLU | 10 nM FLuc-C-HiBiT No ATP, Mean ([2]; M (SDR) -5.44): 16051.7 RLU | 10 nM FLuc-C-HiBiT + 10 mM ATP, Mean ([2]; M (SDR) -5.91): 22563.9 RLU | 10 nM FLuc-C-HiBiT No ATP, Mean ([2]; M (SDR) -5.91): 15076.6 RLU | 10 nM FLuc-C-HiBiT + 10 mM ATP, Mean ([2]; M (SDR) -6.39): 22424.3 RLU | 10 nM FLuc-C-HiBiT No ATP, Mean ([2]; M (SDR) -6.39): 13877.2 RLU | 10 nM FLuc-C-HiBiT + 10 mM ATP, Mean ([2]; M (SDR) -6.87): 22543.4 RLU | 10 nM FLuc-C-HiBiT No ATP, Mean ([2]; M (SDR) -6.87): 13237.3 RLU | 10 nM FLuc-C-HiBiT + 10 mM ATP, Mean ([2]; M (SDR) -7.35): 21860.7 RLU | 10 nM FLuc-C-HiBiT No ATP, Mean ([2]; M (SDR) -7.35): 13241.3 RLU | 10 nM FLuc-C-HiBiT + 10 mM ATP, Mean ([2]; M (SDR) -7.82): 20621.1 RLU | 10 nM FLuc-C-HiBiT No ATP, Mean ([2]; M (SDR) -7.82): 13270.4 RLU | 10 nM FLuc-C-HiBiT + 10 mM ATP, Mean ([2]; M (SDR) -8.30): 18655.3 RLU | 10 nM FLuc-C-HiBiT No ATP, Mean ([2]; M (SDR) -8.30): 13170.2 RLU | 10 nM FLuc-C-HiBiT + 10 mM ATP, Mean ([2]; M (SDR) -8.78): 16941.8 RLU | 10 nM FLuc-C-HiBiT No ATP, Mean ([2]; M (SDR) -8.78): 13237.7 RLU | 10 nM FLuc-C-HiBiT + 10 mM ATP, Mean ([2]; M (SDR) -9.25): 15920.6 RLU | 10 nM FLuc-C-HiBiT No ATP, Mean ([2]; M (SDR) -9.25): 13300.5 RLU | 10 nM FLuc-C-HiBiT + 10 mM ATP, Mean ([2]; M (SDR) -9.73): 15410.2 RLU | 10 nM FLuc-C-HiBiT No ATP, Mean ([2]; M (SDR) -9.73): 13254.2 RLU | 10 nM FLuc-C-HiBiT + 10 mM ATP, Mean ([2]; M (SDR) -10.21): 15302.7 RLU | 10 nM FLuc-C-HiBiT No ATP, Mean ([2]; M (SDR) -10.21): 12964.2 RLU | 10 nM FLuc-C-HiBiT + 10 mM ATP, Mean ([2]; M (SDR) -10.69): 15229.5 RLU | 10 nM FLuc-C-HiBiT No ATP, Mean ([2]; M (SDR) -10.69): 13111.1 RLU | 10 nM FLuc-C-HiBiT + 10 mM ATP, Mean ([2]; M (SDR) -11.16): 15146.3 RLU | 10 nM FLuc-C-HiBiT No ATP, Mean ([2]; M (SDR) -11.16): 13296.1 RLU | 10 nM FLuc-C-HiBiT + 10 mM ATP, Mean ([2]; M (SDR) -11.64): 14993.9 RLU | 10 nM FLuc-C-HiBiT No ATP, Mean ([2]; M (SDR) -11.64): 13163.6 RLU

CC(CNC(=O)C1CCN(C(=O)c2ncn3c2COC(c2ccccc2)C3)CC1)c1ccccc1 (stereo not drawn) [compound 00449795]
SDR + 10 mM ATP ([2]; M -4.48): 68.6 | SDR No ATP ([2]; M -4.48): 10.5 | SDR + 10 mM ATP ([2]; M -4.96): 61.3 | SDR No ATP ([2]; M -4.96): 11.6 | SDR + 10 mM ATP ([2]; M -5.44): 53.2 | SDR No ATP ([2]; M -5.44): 11.0 | SDR + 10 mM ATP ([2]; M -5.91): 34.2 | SDR No ATP ([2]; M -5.91): 13.6 | SDR + 10 mM ATP ([2]; M -6.39): 20.6 | SDR No ATP ([2]; M -6.39): 11.0 | SDR + 10 mM ATP ([2]; M -6.87): 11.1 | SDR No ATP ([2]; M -6.87): 10.7 | SDR + 10 mM ATP ([2]; M -7.35): 7.5 | SDR No ATP ([2]; M -7.35): 9.2 | SDR + 10 mM ATP ([2]; M -7.82): 10.0 | SDR No ATP ([2]; M -7.82): 13.4 | SDR + 10 mM ATP ([2]; M -8.30): 8.1 | SDR No ATP ([2]; M -8.30): 10.9 | SDR + 10 mM ATP ([2]; M -8.78): 7.1 | SDR No ATP ([2]; M -8.78): 11.5 | SDR + 10 mM ATP ([2]; M -9.25): 7.9 | SDR No ATP ([2]; M -9.25): 9.6 | % Activity (max response, + ATP) ([2]; + ATP, SDR max. response, clade S): 349.21% | % Activity (max response, - ATP) ([2]; - ATP, SDR max. response, clade S): 0.00% | ATP dependence of SDR assay output (in words) ([2]; FLuc-C-HiBiT): strictly ATP-dependent
